The text below walks through data of US20260142006A1, “APPARATUS AND METHODS FOR DETERMINING SENSITIVITY TO OSIMERTINIB” (Zephyr AI, Inc., priority 2022, published 2026).

One assay has as its system NSCLC tumor PDX models. Put plainly: tumor response (mRECIST) of treatment-naïve NSCLC patient-derived xenograft (PDX) models in mice. Conditions: 25 mg/kg/day for 3 weeks, NOD/SCID or BALB/c nude mice. The assay is classed as in vivo. An excerpt:
FIG. 9 depicts a method for further validation of sensitivity predictions using patient-dervied xenograft (PDX) models (HuBase™, CrownBio®). Treatment naïve PDX tumors were subcutaneously implanted into female non-obese diabetic/severe combined immunodeficient (NOD/SCID) or BALB/c nude mice in triplicate for a total of 96 mice (n=48 treated; 48 vehicle-treated controls). Mice were assigned labels. After implanted tumors reached a size of 200 mm^3, mice were randomized into treatment and control groups. Treated mice were dosed with 25 mg/kg/day of osimertinib for 3 weeks. Changes in tumor volume were calculated. For each PDX model, tumor growth for treatment groups and control groups was assessed.
To validate the predictions of tumor sensitivity/insensitivity, as described above, data were acquired using treatment-naïve NSCLC tumor (patient-derived xenograft) PDX models available via HuBase™ (CrownBio®, an online database offering complete genomic annotation of the PDX models).
The current FDA label for osimertinib (FIG. 7) was used to assign PDX tumors to “FDA ON” or “FDA OFF” label groups based on the presence or absence of DNA alterations indicated for this drug (i.e., L858R mutation, T790M mutation, or exon 19 deletion). PDX tumors were also assigned label groups based on sensitivity predictions, as described above. Tumors labeled “Zephyr ON” included those that were predicted to be osimertinib-sensitive and samples labeled “Zephyr OFF” include those predicted to be osimertinib-insensitive. PDX models were then divided into four cohorts: FDA ON/ZEPHYR ON; FDA OFF/ZEPHYR ON; FDA ON/ZEPHYR OFF; and FDA OFF/ZEPHYR OFF.
Treatment naïve PDX tumors were subcutaneously implanted into female NOD/SCID or BALB/c nude mice in triplicate for a total of 96 mice (n=48 treated; 48 vehicle-treated controls). After implanted tumors reached a size of 200 mm^3, mice were randomized into treatment and control groups. Treated mice were dosed with 25 mg/kg/day of osimertinib for 3 weeks. Changes in tumor volume were calculated as previously described, e.g., in Gao et al., Nat. Med. 21, 1318-1325 (2015). For each PDX model, tumor growth for treatment groups and control groups (vehicle only) was assessed.
This final cohort represents an expansion of the patient population that can be successfully treated with osimertinib that is not captured by the existing FDA label.
In general terms: A xenograft is tissue or cells of one species grown in another, often human tumour cells in immunodeficient mice.

Another assay has as its system NSCLC. Put plainly: overall survival of osimertinib-treated NSCLC patients (AACR Project GENIE cohort), predicted sensitive vs. less sensitive. The assay is classed as in vivo, human. The settings on record: 334 osimertinib-treated patients. From the text: FIG. 8 depicts a Kaplan-Meier plot showing corresponding overall survival (OS) measurements of patients predicted, according to methods of the present disclosure, to be sensitive vs. insensitive to ismertinib. NSCLC patients predicted to be sensitive experienced a 35-month increased median OS than the predicted less sensitive group (log-rank test p-value<10-5; HR=1.57 (1.43-1.78, 95% CI)).
A clinicogenomics cohort from AACR Project GENIE, which included 334 patients treated with osimertinib, was used to validate the predictive ability of the methods disclosed herein. Data obtained in real-world settings were used to assign drug sensitivity predictions to individual patients in a RWD cohort of NSCLC patients treated with osimertinib. FIG. 8, a Kaplan-Meier plot, depicts overall survival (OS) measurements corresponding to patients predicted to be sensitive vs. insensitive. NSCLC patients predicted to be sensitive experienced a 35-month increased median OS than the NSCLC patients predicted to be less sensitive (log-rank test p-value<10-5; HR=1.57 (1.43-1.78, 95% CI)).

The subject of a further assay is cancer cell lines. The assay can be described thus: area under the drug response curve (AUC) of cancer cell lines exposed to osimertinib. The assay is classed as cell-based. Conditions: AUC of 1 = growth equal to growth without osimertinib. An excerpt:
FIG. 4D depicts a boxplot of area under the drug response curve values for cell lines partitioned into a first group (sensitive) and the second group (non-sensitive) of cancer cell lines, by a machine learning model disclosed herein.
FIG. 4D depicts a graph of a box and whisker plot of area under the drug response curve (AUC) values for the first group (sensitive) and the second group (non-sensitive) of cancer cell lines. […] Furthermore, instead of generating the machine learning model wherein the model learns a point estimate for each of the parameters of the partitioning matrix (e.g., two or more genes), the machine learning model may be generated in a Bayesian context, wherein the machine learning model learns the posterior parameter distribution for the parameters of the partitioning matrix, the posterior parameter distribution may be approximately gaussian. For example, when the parameters of the partitioning matrix include 7 distinct genes, the machine learning model may learn the posterior parameter distribution for 8 different parameters (e.g., 7 genes plus an intercept term). In some embodiments, the posterior parameter distribution may have a confidence region of about 90%. The graphical representation of the confidence region of the posterior parameter distribution may depict ellipse enclosing a high-density region.

`C=CC(=O)Nc1cc(Nc2nccc(-c3cn(C)c4ccccc34)n2)c(OC)cc1N(C)CCN(C)C` [osimertinib]: the “tumor response by mRECIST” value with NSCLC tumor PDX models (FDA OFF/ZEPHYR OFF cohort) is “disease progression”; with NSCLC tumor PDX models (FDA OFF/ZEPHYR ON cohort (no on-label EGFR alteration, predicted sensitive)), “partial to complete response”; in the assay with NSCLC tumor PDX models (FDA ON/ZEPHYR OFF cohort) it was “a mix of complete responses and disease progression”; with NSCLC tumor PDX models (FDA ON/ZEPHYR ON cohort) it was “complete response”. The “increase in median overall survival (OS), predicted sensitive vs. predicted less sensitive” value in the assay with NSCLC (real-world data, log-rank test p-value<10-5) was 35 month. Further, the “hazard ratio (HR) for overall survival” value with NSCLC (95% CI in brackets) was 1.57 (1.43-1.78, 95% CI). Further, the “average AUC (area under the drug response curve)” value is listed as “about 0.9” with cancer cell lines (first group (predicted sensitive) of cancer cell lines) and “about 0.95” in the assay with cancer cell lines (second group (predicted non-sensitive) of cancer cell lines).
